In patent US12486271B2, “Solid forms of a toll-like receptor modulator” (GILEAD SCIENCES, INC., priority 2014, dated 2025):

Tests used:
HCV = settings: once daily 7-day treatment, HCV infected patients; cited from earlier work
[1] = Competition slurry experiment of Form I and Form III in methanol; type: physicochemical; settings: 10 mg of each of Form I and Form III in methanol
[2] = Variable temperature XRD (VT XRD) experiment: form stability on cooling; type: physicochemical; settings: cooled to 25° C. after generation by heating
From the text: X-ray Powder Diffraction (XRPD). The Rigaku Smart-Lab® X-ray diffraction system was configured for reflection BraggBrentano geometry using a line source X-ray beam. The x-ray source is a Cu Long Fine Focus tube that was operated at 40 kV and 44 mA. That source provides an incident beam profile at the sample that changes from a narrow line at high angles to a broad rectangle at low angles. Beam conditioning slits were used on the line X-ray source to ensure that the maximum beam size is less than 10 mm both along the line and normal to the line. The Bragg-Brentano geometry is a para-focusing geometry controlled by passive divergence and receiving slits with the sample itself acting as the focusing component for the optics. The inherent resolution of Bragg-Brentano geometry is governed in part by the diffractometer radius and the width of the receiving slit used. Typically, the Rigaku Smart-Lab is operated to give peak widths of 0.1°2θ or less. The axial divergence of the X-ray beam is controlled by 5.0-degree Soller slits in both the incident and diffracted beam paths. Powder samples were prepared in a low background Si holder using light manual pressure to keep the sample surfaces flat and level with the reference surface of the sample holder. The single-crystal, Si, low-background holder has a small circular recess (7 mm diameter and about 1 mm depth) that holds between 5 and 10 mg of powdered material. Each sample was analyzed from 2 to 40°2θ using a continuous scan of 3°2θ per minute with an effective step size of 0.02°2θ. Form III was generated at 138° C. from Form I in a variable temperature XRD (VT XRD) experiment. […] Form III is characterized by the X-ray powder diffraction pattern in FIG. 9, and the differential scanning calorimetry plot in FIG. 11 showing endotherms at about 181 and 271° C. (decomposition). Form IV was generated between 95 and 110° C. from Form II in a variable temperature XRD experiment. […] is characterized by the X-ray powder diffraction pattern in FIG. 13.

SMILES | Plasma virus concentrations (HCV) | Time for conversion of Form III back to Form I in competition slurry [1] | Solid form stability when cooled to 25° C. in variable temperature XRD [2] | Solid form stability when cooled to 25° C. in variable temperature XRD ([2]; listed as Compound I Form III)
Nc1nc(=O)c2sc(=O)n([C@@H]3O[C@H](CO)[C@@H](O)[C@H]3O)c2[nH]1 [isatoribine] | reduces plasma virus concentrations |  |  | 
CCCCOc1nc(N)c2c(n1)N(Cc1cccc(CN3CCCC3)c1)CC(=O)N2 [Form III, 4-amino-2-butoxy-8-(3-(pyrrolidin-1-ylmethyl)benzyl)-7,8-dihydropteridin-6(5H)-one] |  | ≤ 2 weeks | stable when cooled to 25 °C and does not convert back to Form I | remains as Form III
CCCCOc1nc(N)c2c(n1)N(Cc1cccc(CN3CCCC3)c1)CC(=O)N2 [Form IV, 4-amino-2-butoxy-8-(3-(pyrrolidin-1-ylmethyl)benzyl)-7,8-dihydropteridin-6(5H)-one] |  |  | converts back to Form II when cooled to 25 °C | 
